Source: patent US20170007561A1, “CONTEMPORANEOUS, HETEROGENEOUSLY-ORIENTED, MULTI-TARGETED THERAPEUTIC MODIFICATION AND/OR MODULATION OF DISEASE BY ADMINISTRATION OF SULFUR-CONTAINING, AMINO ACID-SPECIFIC SMALL MOLECULES” (BioNumerik Pharmaceuticals, Inc., priority 2014, published 2017)
Where two headings read alike, the source gives them in different places.

Experiments:
[1] = test system: mammalian thioredoxin reductase (TrxR); conditions: cited from earlier work
[2] = single oral dose of 100 mg to healthy volunteers; cited from earlier work
bovine TrxR = biological target: T1, bovine TrxR (Bos taurus, UniProt O62768); assay: TrxR NADPH oxidation assay without Trx (Reaction A); assay type: biochemical; conditions: TrxR alone + NADPH, no Trx
T1 construct: purchased American Diagnostica
T1 sequence (O62768 1-499): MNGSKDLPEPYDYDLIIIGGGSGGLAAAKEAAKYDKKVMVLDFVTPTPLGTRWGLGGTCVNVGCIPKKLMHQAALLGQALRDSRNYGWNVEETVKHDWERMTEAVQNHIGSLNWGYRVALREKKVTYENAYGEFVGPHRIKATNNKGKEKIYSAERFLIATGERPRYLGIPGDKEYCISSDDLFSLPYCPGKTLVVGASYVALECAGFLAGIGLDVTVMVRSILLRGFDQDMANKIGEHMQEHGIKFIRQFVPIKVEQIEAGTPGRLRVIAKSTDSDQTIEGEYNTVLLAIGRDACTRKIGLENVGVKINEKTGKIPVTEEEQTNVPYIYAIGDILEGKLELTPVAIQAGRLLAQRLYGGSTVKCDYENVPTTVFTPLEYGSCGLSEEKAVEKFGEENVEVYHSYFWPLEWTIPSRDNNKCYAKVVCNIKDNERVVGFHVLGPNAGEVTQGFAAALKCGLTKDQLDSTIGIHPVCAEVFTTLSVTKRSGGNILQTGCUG

T790M EGFR kinase = T790M EGFR kinase (Homo sapiens, UniProt P00533, T790M); assay: EGFR kinase assay (ADP-glo, polyGT substrate), T790M mutant; assay type: biochemical; conditions: for IC50: read-out: IC50, inhibition of T790M EGFR kinase; for effect on Erlotinib inhibition of T790M EGFR kinase activity: heteroconjugate in combination with Erlotinib, 10 μM and/or 100 μM ATP
[3] = biological target: T2, glutathione reductase (GR) (Homo sapiens, UniProt P00390); conditions: cited from earlier work
T2 sequence (P00390 44-522): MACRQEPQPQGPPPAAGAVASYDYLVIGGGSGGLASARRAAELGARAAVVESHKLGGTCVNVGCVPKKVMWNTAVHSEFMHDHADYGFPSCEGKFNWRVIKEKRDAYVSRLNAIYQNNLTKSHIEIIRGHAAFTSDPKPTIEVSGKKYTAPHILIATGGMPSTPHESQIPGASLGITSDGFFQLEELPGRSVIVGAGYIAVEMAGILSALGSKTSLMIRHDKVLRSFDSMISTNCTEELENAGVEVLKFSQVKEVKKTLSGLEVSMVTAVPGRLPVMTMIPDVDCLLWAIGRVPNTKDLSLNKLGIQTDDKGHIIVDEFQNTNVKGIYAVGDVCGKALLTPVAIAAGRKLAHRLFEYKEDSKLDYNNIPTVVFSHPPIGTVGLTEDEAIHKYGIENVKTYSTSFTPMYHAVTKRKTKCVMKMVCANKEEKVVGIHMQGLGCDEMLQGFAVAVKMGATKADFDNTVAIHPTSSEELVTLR

[4] = test system: bovine brain microtubule protein (α-/β-tubulin); assay: Microtubule protein polymerization assay (OD350); assay type: biochemical; conditions: for protection against monoaquocisplatin-induced loss of microtubule protein polymerization: preincubated with monoaquocisplatin (36 μM), mesna or cysteine 200 μM; for effect on microtubule protein polymerization: sodium chloride 32 mM control
ErbB-2 = ErbB-2 (Homo sapiens, UniProt P04626); set-up: key: the “+” and “−” symbols signify the ability and inability to activate each of the ErbB receptors, respectively; the “+” and “−” symbols signify the ability and inability to activate each of the ErbB receptors, respectively; conditions: cited from earlier work
ErbB-3 = ErbB-3 (Homo sapiens, UniProt P21860); set-up: key: the “+” and “−” symbols signify the ability and inability to activate each of the ErbB receptors, respectively; the “+” and “−” symbols signify the ability and inability to activate each of the ErbB receptors, respectively; conditions: cited from earlier work
ErbB-4 = ErbB-4 (Homo sapiens, UniProt Q15303); set-up: key: the “+” and “−” symbols signify the ability and inability to activate each of the ErbB receptors, respectively; the “+” and “−” symbols signify the ability and inability to activate each of the ErbB receptors, respectively; conditions: cited from earlier work
Sequence of ErbB-4 (Q15303 26-1308, species assumed): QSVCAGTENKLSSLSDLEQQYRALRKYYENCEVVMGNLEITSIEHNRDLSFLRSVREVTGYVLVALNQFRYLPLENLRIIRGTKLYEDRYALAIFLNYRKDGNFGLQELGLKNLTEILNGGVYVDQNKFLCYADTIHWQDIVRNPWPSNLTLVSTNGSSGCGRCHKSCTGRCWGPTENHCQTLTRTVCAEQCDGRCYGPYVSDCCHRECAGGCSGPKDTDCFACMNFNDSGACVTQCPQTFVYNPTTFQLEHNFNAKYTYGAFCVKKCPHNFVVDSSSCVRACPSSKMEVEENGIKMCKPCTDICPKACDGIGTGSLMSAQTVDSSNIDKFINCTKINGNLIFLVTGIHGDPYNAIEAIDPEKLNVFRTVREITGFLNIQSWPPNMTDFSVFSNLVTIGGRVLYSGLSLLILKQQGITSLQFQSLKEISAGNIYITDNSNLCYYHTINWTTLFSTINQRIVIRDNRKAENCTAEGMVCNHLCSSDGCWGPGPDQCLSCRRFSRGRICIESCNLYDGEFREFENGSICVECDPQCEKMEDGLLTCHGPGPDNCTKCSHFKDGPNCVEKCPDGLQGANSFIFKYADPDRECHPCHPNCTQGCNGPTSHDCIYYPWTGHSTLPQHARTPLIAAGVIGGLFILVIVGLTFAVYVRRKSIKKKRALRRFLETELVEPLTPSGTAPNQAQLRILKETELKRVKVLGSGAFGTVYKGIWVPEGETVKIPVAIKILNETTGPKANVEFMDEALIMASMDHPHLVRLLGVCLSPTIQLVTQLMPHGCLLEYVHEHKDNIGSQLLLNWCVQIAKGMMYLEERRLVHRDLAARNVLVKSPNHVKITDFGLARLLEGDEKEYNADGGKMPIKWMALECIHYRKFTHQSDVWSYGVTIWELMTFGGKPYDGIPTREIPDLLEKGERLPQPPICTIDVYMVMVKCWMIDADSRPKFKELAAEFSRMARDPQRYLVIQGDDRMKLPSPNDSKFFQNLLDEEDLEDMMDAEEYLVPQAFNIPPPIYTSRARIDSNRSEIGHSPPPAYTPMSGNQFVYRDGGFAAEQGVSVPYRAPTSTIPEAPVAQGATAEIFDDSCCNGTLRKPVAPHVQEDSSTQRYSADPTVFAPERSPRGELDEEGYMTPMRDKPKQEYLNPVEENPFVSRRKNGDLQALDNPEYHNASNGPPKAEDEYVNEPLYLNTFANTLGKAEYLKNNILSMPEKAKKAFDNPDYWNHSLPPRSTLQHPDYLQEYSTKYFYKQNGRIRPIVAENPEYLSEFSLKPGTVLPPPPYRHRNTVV

ErbB-1 = ErbB-1 (Homo sapiens, UniProt P00533); conditions: cited from earlier work

CC1=C(/C=C/C(C)=C/C=C/C(C)=C\C(=O)O)C(C)(C)CCC1 [13-cis-retinoic acid]
Inhibition of TrxR [1]: irreversible inhibition of TrxR

C#Cc1cccc(Nc2ncnc3cc(OCCOC)c(OCCOC)cc23)c1 [Erlotinib, reference compound]
Cmax [2]: 1390 ng/mL

NC(CSSCCS(=O)(=O)O)C(=O)NC(CCC(=O)O)C(=O)O (stereo not shown) [MSSCE, mesna-cysteinyl glutamate disulfide]
NADPH Oxidation, Reaction A (bovine TrxR; disulfide 0.5 mM): 0.3 ± 0.02 nmol/min/mL

NC(CSSCCS(=O)(=O)O)C(=O)NCC(=O)O (stereo not shown) [MSSCG, mesna-cysteinyl glycine disulfide]
NADPH Oxidation, Reaction A (bovine TrxR; disulfide 0.5 mM): 0.2 ± 0.04 nmol/min/mL

NC(CSSCCS(=O)(=O)O)C(=O)O (stereo not shown) [Mesna-Cysteine]
IC50 (T790M EGFR kinase; 10 μM ATP): 3760 ± 260 µM
IC50 (T790M EGFR kinase; 100 μM ATP): 3030 ± 280 µM
effect on Erlotinib inhibition of T790M EGFR kinase activity (T790M EGFR kinase): effectively potentiated

NC(CSSCCS(=O)(=O)O)C(=O)NC(CCC(=O)O)C(=O)O (stereo not shown) [Mesna-Cysteinylglutamate]
IC50 (T790M EGFR kinase; 10 μM ATP): 1090 ± 190 µM
IC50 (T790M EGFR kinase; 100 μM ATP): 1050 ± 80 µM
effect on Erlotinib inhibition of T790M EGFR kinase activity (T790M EGFR kinase): effectively potentiated

NC(CSSCCS(=O)(=O)O)C(=O)NCC(=O)O (stereo not shown) [Mesna-Cysteinylglycine]
IC50 (T790M EGFR kinase; 10 μM ATP): 510 ± 10 µM
IC50 (T790M EGFR kinase; 100 μM ATP): 410 ± 50 µM
effect on Erlotinib inhibition of T790M EGFR kinase activity (T790M EGFR kinase): effectively potentiated

NC(CCC(=O)NC(CSSCCS(=O)(=O)O)C(=O)NCC(=O)O)C(=O)O (stereo not shown) [Mesna-Glutathione]
IC50 (T790M EGFR kinase; 10 μM ATP): 1280 ± 290 µM
IC50 (T790M EGFR kinase; 100 μM ATP): 1170 ± 10 µM
effect on Erlotinib inhibition of T790M EGFR kinase activity (T790M EGFR kinase): effectively potentiated

CS(=O)(=O)OCCCCOS(C)(=O)=O [busulfan]
Inhibition of GR [3]: not GR
Inhibition of TrxR [1]: irreversibly inhibited TrxR in a concentration- and time-dependent manner

N.N.O=C([O-])C1(C(=O)[O-])CCC1.[Pt+2] [carboplatin]
Inhibition of GR [3]: could not inhibit either TrxR or GR
Inhibition of TrxR [1]: could not inhibit either TrxR or GR

O=NN(CCCl)C(=O)NCCCl [carmustine]
Inhibition of GR [3]: can inhibit both GR and Trx
Inhibition of TrxR [1]: can inhibit both GR and Trx

O=C(O)CCCc1ccc(N(CCCl)CCCl)cc1 [chlorambucil]
Inhibition of GR [3]: not GR
Inhibition of TrxR [1]: irreversibly inhibited TrxR in a concentration- and time-dependent manner

N.N.[Cl][Pt][Cl] [cisplatin]
Inhibition of GR [3]: not GR
Inhibition of TrxR [1]: irreversibly inhibited TrxR

O=P1(N(CCCl)CCCl)NCCCO1 (stereo not shown) [cyclophosphamide]
Inhibition of GR [3]: not GR
Inhibition of TrxR [1]: irreversibly inhibited TrxR in a concentration- and time-dependent manner

N[C@@H](CS)C(=O)O [cysteine, reference compound]
effect alone on microtubule protein polymerization ([4]; in the absence of monoaquocisplatin): neither mesna nor cysteine alone (in the absence of monoaquocisplatin) had any effect

COc1cccc2c1C(=O)c1c(O)c3c(c(O)c1C2=O)C[C@@](O)(C(C)=O)C[C@@H]3O[C@H]1C[C@H](N)[C@H](O)[C@H](C)O1 [daunorubicin]
Inhibition of TrxR [1]: not inhibitors of TrxR

N[C@@H](CCC(=O)O)C(=O)O [glutamate, reference compound]
protection against monoaquocisplatin-induced loss of microtubule protein polymerization [4]: not seen

NC(=O)CC[C@H](N)C(=O)O [glutamine, reference compound]
protection against monoaquocisplatin-induced loss of microtubule protein polymerization [4]: not seen

O=P1(NCCCl)OCCCN1CCCl (stereo not shown) [ifosfamide]
Inhibition of TrxR [1]: inhibited TrxR

N[C@@H](Cc1ccc(N(CCCl)CCCl)cc1)C(=O)O [melphalan]
Inhibition of GR [3]: not GR
Inhibition of TrxR [1]: irreversibly inhibited TrxR in a concentration- and time-dependent manner

N.N.O.[Cl][Pt+] [monoaquocisplatin, reference compound]
effect of extended exposure on microtubule protein polymerization ([4]; monoaquocisplatin 36 μM): loss of microtubule protein's ability to polymerize

O=C1[O][Pt]2([NH][C@@H]3CCCC[C@H]3[NH]2)[O]C1=O [oxaliplatin]
Inhibition of GR [3]: not GR
Inhibition of TrxR [1]: irreversibly inhibited TrxR

[Cl-].[Na+] [sodium chloride]
effect on microtubule protein polymerization [4]: did not inhibit
effect on microtubule protein polymerization ([4]; listed as NaCl): no effect

N.N.[Cl][Pt+2][Cl] [transplatin]
Inhibition of GR [3]: not GR
Inhibition of TrxR [1]: irreversibly inhibited TrxR

EGF: growth factor ligand of ErbB receptors
ability to activate ErbB-2 (ErbB-2): −
ability to activate ErbB-3 (ErbB-3): −
ability to activate ErbB-4 (ErbB-4): −

HB-EGF: growth factor ligand of ErbB receptors
ability to activate ErbB-1 (ErbB-1): +
ability to activate ErbB-2 (ErbB-2): −
ability to activate ErbB-3 (ErbB-3): −
ability to activate ErbB-4 (ErbB-4): +

Insulin: positive control disulfide substrate of Trx [reference compound]
NADPH Oxidation, Reaction A (bovine TrxR; insulin 86 μM): 0.3 ± .03 nmol/min/mL

TGF-α: growth factor ligand of ErbB receptors
ability to activate ErbB-2 (ErbB-2): −
ability to activate ErbB-3 (ErbB-3): −
ability to activate ErbB-4 (ErbB-4): −

amphiregulin: growth factor ligand of ErbB receptors
ability to activate ErbB-1 (ErbB-1): +
ability to activate ErbB-2 (ErbB-2): −
ability to activate ErbB-3 (ErbB-3): −
ability to activate ErbB-4 (ErbB-4): −

betacellulin: growth factor ligand of ErbB receptors
ability to activate ErbB-1 (ErbB-1): +
ability to activate ErbB-2 (ErbB-2): −
ability to activate ErbB-3 (ErbB-3): −
ability to activate ErbB-4 (ErbB-4): +

epiregulin: growth factor ligand of ErbB receptors
ability to activate ErbB-1 (ErbB-1): +
ability to activate ErbB-2 (ErbB-2): −
ability to activate ErbB-3 (ErbB-3): −
ability to activate ErbB-4 (ErbB-4): +

neuregulin 1
ability to activate ErbB-1 (ErbB-1): −
ability to activate ErbB-2 (ErbB-2): −
ability to activate ErbB-3 (ErbB-3): +
ability to activate ErbB-4 (ErbB-4): +

B1: epigen: growth factor ligand of ErbB receptors (protein, UniProt Q6UW88 23-154, looked up)
Epigen: AAVTVTPPITAQQGNWTVNKTEADNIEGPIALKFSHLCLEDHNSYCINGACAFHHELEKAICRCFTGYTGERCEHLTLTSYAVDSYEKYIAIGIGVGLLLSGFLVIFYCYIRKRCLKLKSPYNVCSGERRPL
ability to activate ErbB-1 (ErbB-1): +
ability to activate ErbB-2 (ErbB-2): −
ability to activate ErbB-3 (ErbB-3): −
ability to activate ErbB-4 (ErbB-4): −
